These results are taken from PMC9186491, “Novel Small Molecule Tyrosine Kinase 2 Pseudokinase Ligands Block Cytokine-Induced TYK2-Mediated Signaling Pathways” (Frontiers in Immunology, 2022).

Assay [1] has as its system IFNα-induced TYK2/phosphoSTAT1 (Tyr701) in Kit225 T cells. In words: Kit225 T cell assay for IFNα-induced TYK2/phosphoSTAT1 activity. The class given is cell-based, human. The conditions noted are these: Kit225 cells, 80 ng/mL IFNα, AlphaLISA; read-out: IC50 IFNα-induced-STAT1 Phosphorylation. How it is done: The cells were treated with serially diluted compounds for 1 hour and stimulated with 80 ng/mL human recombinant IFNα (R&D Systems) for 15 minutes. The treated cells were then lysed and cellular phosphorylated-STAT1 (Tyr701) levels were measured by AlphaLISA (PerkinElmer, Cat#ALSU-PST1) according to the manufacturer’s instructions.

Assay [2] has as its system IL23-induced TYK2/phosphoSTAT3 (Tyr705) in Kit225 T cells. In words: Kit225 T cell assay for IL23-induced TYK2/phosphoSTAT3 activity. The note with it: Kit225 cells, 100 ng/mL IL23, AlphaLISA; read-out: IC50 IL23-induced-STAT3 Phosphorylation. The class given is cell-based, human. How it is done: The cells were treated with serially diluted compounds for 1 hour and stimulated with 100 ng/mL human recombinant IL23 (R&D Systems) for 20 minutes. The treated cells were then lysed and cellular phosphorylated-STAT3 (Tyr705) levels were measured by AlphaLISA (PerkinElmer, Cat# ALSU-PST3) according to the manufacturer’s instructions.
A general note: In Alpha technology, singlet oxygen from a donor bead excites a nearby acceptor bead.

For assay [3], the system named is IFNα-induced CXCL10 production in human whole blood. The assay can be described thus: IFNα-induced CXCL10 production in human whole blood. It is filed as cell-based. Here is the method:
Human whole blood [drawn with Ethylenediaminetetraacetic acid (EDTA) as anti-coagulant] was obtained from Zen-Bio Inc. (Durham, NC). […] The plasma was collected for detection of C-X-C motif chemokine 10 (CXCL10, IP10) secretion. CXCL10 was measured by Human CXCL10/IP-10 AlphaLISA Kit (PerkinElmer, #AL259 C/F) according to the manufacturer’s instructions.

The test system of assay [4] is JAK2-dependent EPO-induced phosphorylation of STAT5 (Tyr694/699) in TF1 cells. In words: JAK cellular selectivity assay, EPO-pSTAT5 (JAK2). It is filed as cell-based, human. How it is done:
(§1) The cells were then ready for the assay after incubating for 2 hours in a humidified, 5% CO2 cell culture incubator at 37°C. […] The curve fit was generated, and statistical analysis was performed using GraphPad Prism. IC50 values were derived by non-linear regression analysis and defined as the compound concentration at which the response level was reduced to half of its maximum relative to a DMSO control.

Assay [5] has as its system moderate to severe psoriasis patients. The arrangement: method as in PMID 30205746. The conditions noted are these: phase II, 267 patients; cited from earlier work.
Assay [6] deals with IL12-induced IFNγ production in human PBMCs. In words: IL12-induced IFNγ production in human PBMCs. The class given is cell-based. The note with it: PBMC, IL12 overnight, read-out: TYK2-associated IL12-induced-IFNγ Production in Human PBMCs: IC50. How it is done: Human PBMC samples were obtained from iQ Biosciences, CA. 1.0 × 10^6/mL PBMCs were seeded in complete RPMI at a sterilized U-shaped 96-well plate with a volume of 200 μL/well. PBMCs were treated by serially-diluted test compounds, and incubated with 40 ng/mL recombinant human IL12 (Biolegend, #573002) for overnight in a humidified, 5% CO2 cell culture incubator at 37°C. The supernatant was then collected for detection of IFNγ secretion. IFNγ level was measured by Human IFNγ AlphaLISA Kit (PerkinElmer, AL217C/F) according to the manufacturer’s instructions.

Assay [7] concerns JAK1-dependent IL6-induced phosphorylation of STAT3 (Tyr705) in TF1 cells. The assay can be described thus: JAK cellular selectivity assay, IL6-pSTAT3 (JAK1). It is filed as cell-based. The note with it: Homo sapiens, TF-1, read-out: JAK Cellular Selectivity (IC50) IL6-pSTAT3 (JAK1). How it is done:
as §1

Assay [8] has as its system JAK1/3-dependent IL2-induced phosphorylation of STAT5 (Tyr694/699) in Kit225 cells. In words: JAK cellular selectivity assay, IL2-pSTAT5 (JAK1/3). It is filed as cell-based. The conditions noted are these: Homo sapiens, KIT225, read-out: JAK Cellular Selectivity (IC50) IL2-pSTAT5 (JAK1/3). Here is the method:
as §1

Assay [9] relates to IL23-induced-IL17 production in mouse splenocytes. The assay can be described thus: IL23-induced IL17 production in mouse splenocytes. The class given is cell-based. The conditions noted are these: Splenocyte; IL23-stimulated mouse splenocytes; read-out: mIL17 IC50. How it is done:
(§2) generated by non-linear regression analysis to determine the IC50 values of compounds using […]
(Monkey, Canine, Rat and Mouse)
(A) Suppression of IL23-induced-IL17 production in mouse splenocytes by TYK2 JH2 ligands, […]
(§3) JH2 ligands, SHR2915, 0936, 1039 and 1213, in mouse splenocytes (B), Canine PBMCs (C), Rat PBMCs (D) and Macaque PBMCs (E). Inhibition data were calculated by comparison to vehicle […]
(§4) response curves were then generated to determine the IC50 values as derived by non-linear regression analysis using GraphPad Prism. […]

Assay [10] concerns IL12-induced-IFNg production in mouse splenocytes. In words: IL12-induced IFNγ production in mouse splenocytes. The class given is cell-based. The conditions noted are these: Splenocyte.
Assay [11] concerns IL12-induced-IFNg production in Canine PBMCs. In words: IL12-induced IFNγ production in canine PBMCs. The note with it: Canis lupus familiaris, PBMC. It is filed as cell-based. How it is done: as §2
(§5) (Monkey, Canine, Rat and Mouse) […]
as §3, §4

Assay [12] deals with IL12-induced-IFNg production in Rat PBMCs. In words: IL12-induced IFNγ production in rat PBMCs. The class given is cell-based. The note with it: PBMC. How it is done:
as §2, §5, §3, §4

In assay [13] the test system is IL12-induced-IFNg production in Macaque PBMCs. The assay can be described thus: IL12-induced IFNγ production in macaque PBMCs. It is filed as cell-based, Macaque (Cyno Monkey). The note with it: Primates, PBMC, read-out: IL12-induced-IFNg, IC50, Monkey. How it is done: as §2, §5, §3, §4

Where two headings read alike, the source gives them in different places.

Deucravacitinib: the IC50 in [1] turned out to be 8.5 nM; in assay [2] it was 5 nM; in assay [3] (Donor 1, read-out: IFNa-induced-CXCL10 Production in Human Whole Blood IC50, Donor 1), 110 nM; in assay [3] (Donor 2, read-out: IFNa-induced-CXCL10 Production in Human Whole Blood IC50, Donor 2), 94 nM; in [3] (Donor 3, read-out: IFNa-induced-CXCL10 Production in Human Whole Blood IC50, Donor 3), 83 nM; in assay [3] (average of Donor 1-3, read-out: IFNa-induced-CXCL10 Production in Human Whole Blood IC50, Average) it was 96 nM. The IC50 in [4] (TF1 cells, read-out: JAK Cellular Selectivity (IC50) EPO-pSTAT5 (JAK2)) was greater than 10000 nM. Further, the “Daily dose at which clinically effective” value in assay [5] is reported as no less than 3 mg.
Turning to `CNC(=O)c1nnc(Nc2ccc(N3CCC3)cn2)cc1Nc1cccc(-c2ncn(C)n2)c1OC` [SHR2915], the IC50 in assay [3] (Homo sapiens, 16 h, read-out: TYK2-associated IFNα-induced-CXCL10 Production in Human Whole Blood: IC50) was 160 nM; in [6] it was 45 nM; in [7], 200 ± 11 nM; in assay [4] (Homo sapiens, TF-1, read-out: JAK Cellular Selectivity (IC50) EPO-pSTAT5 (JAK2)), greater than 10000 nM; in assay [8] it was 2300 ± 970 nM; in assay [9], 11 nM. Besides, the IC50 in [10] was 60 nM; in assay [11] it was 33 nM; in assay [12], 3 nM; in assay [13], 14 nM.
